Values of other authors as cited in US20250243467A1, “BONE MARROW ORGANOIDS PRODUCED FROM INDUCED PLURIPOTENT STEM CELLS AND USES OF THESE ORGANOIDS” (PRISM INGENUITY GMBH, priority 2022, published 2025).

Key:
[1] = target: T1, ALK7 (Homo sapiens, UniProt Q8NER5); details: competing for the ATP binding site
T1 sequence (Q8NER5 21-493): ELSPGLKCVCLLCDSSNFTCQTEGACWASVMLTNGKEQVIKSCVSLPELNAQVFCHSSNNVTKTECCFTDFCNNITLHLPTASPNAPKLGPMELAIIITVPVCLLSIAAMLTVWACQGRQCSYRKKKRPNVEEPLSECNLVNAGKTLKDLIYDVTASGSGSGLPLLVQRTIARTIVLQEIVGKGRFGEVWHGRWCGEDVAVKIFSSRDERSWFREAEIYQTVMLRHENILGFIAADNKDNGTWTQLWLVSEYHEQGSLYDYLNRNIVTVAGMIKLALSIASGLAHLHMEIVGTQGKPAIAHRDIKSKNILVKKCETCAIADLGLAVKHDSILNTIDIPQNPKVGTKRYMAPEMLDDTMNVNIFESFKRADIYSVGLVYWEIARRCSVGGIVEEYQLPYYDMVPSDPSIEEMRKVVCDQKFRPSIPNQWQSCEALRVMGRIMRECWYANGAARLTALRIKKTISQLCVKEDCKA

[2] = target: ALK2 (Homo sapiens, UniProt Q04771)
ALK2, sequence (Q04771 21-509, species assumed): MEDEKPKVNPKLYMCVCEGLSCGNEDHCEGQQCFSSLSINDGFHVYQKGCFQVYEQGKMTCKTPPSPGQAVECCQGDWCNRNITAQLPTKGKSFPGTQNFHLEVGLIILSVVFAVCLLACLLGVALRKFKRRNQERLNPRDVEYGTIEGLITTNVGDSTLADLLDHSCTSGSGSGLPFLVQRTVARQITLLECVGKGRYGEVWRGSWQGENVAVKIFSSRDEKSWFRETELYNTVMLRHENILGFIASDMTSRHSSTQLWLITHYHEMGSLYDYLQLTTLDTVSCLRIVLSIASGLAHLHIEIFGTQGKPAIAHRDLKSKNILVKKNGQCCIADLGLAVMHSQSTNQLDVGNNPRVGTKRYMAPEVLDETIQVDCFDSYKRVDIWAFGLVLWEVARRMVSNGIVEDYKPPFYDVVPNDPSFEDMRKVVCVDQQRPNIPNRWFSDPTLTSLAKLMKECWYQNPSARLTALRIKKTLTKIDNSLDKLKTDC

[3] = target: ALK3 (Homo sapiens, UniProt P36894)
ALK3, sequence (P36894 24-532, species assumed): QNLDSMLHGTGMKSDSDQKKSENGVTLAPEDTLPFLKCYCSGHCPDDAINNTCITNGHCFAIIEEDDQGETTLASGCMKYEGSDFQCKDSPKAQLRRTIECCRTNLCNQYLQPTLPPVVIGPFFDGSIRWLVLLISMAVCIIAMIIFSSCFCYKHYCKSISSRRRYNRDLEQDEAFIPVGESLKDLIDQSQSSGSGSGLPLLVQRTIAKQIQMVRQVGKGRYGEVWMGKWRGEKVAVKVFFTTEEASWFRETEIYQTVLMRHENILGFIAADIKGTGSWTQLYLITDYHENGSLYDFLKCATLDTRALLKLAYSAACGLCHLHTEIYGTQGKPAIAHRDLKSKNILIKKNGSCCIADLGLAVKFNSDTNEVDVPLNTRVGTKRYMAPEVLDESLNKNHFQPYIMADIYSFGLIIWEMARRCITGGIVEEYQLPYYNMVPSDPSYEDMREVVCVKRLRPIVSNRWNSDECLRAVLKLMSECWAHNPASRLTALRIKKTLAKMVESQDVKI

[4] = target: ALK6 (Homo sapiens, UniProt O00238)
ALK6, sequence (O00238 14-502): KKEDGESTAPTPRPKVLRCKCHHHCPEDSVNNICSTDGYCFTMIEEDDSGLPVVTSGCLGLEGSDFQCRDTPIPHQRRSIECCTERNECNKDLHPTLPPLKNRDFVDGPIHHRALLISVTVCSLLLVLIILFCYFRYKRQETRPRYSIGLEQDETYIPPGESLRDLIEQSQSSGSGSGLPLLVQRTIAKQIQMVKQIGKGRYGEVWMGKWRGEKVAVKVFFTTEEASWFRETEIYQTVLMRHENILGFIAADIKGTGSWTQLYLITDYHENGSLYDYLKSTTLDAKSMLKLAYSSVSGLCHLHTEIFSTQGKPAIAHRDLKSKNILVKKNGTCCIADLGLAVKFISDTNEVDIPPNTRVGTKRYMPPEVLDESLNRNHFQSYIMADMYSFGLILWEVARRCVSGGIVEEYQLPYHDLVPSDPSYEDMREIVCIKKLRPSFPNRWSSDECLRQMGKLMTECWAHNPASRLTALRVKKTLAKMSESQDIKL

inhibition of ALK7 [1]: inhibits
inhibition of BMP type I receptor ALK2 [2]: does not inhibit
inhibition of BMP type I receptor ALK3 [3]: does not inhibit
inhibition of BMP type I receptor ALK6 [4]: does not inhibit
SMILES: NC(=O)c1ccc(-c2nc(-c3ccc4c(c3)OCO4)c(-c3ccccn3)[nH]2)cc1 [SB431542]
